Source: US20250109112A1, “HERBICIDAL COMPOUNDS” (SYNGENTA CROP PROTECTION AG, priority 2022, published 2025)

Experiments:
Assay type in all cases: in vivo
Settings in all cases: 250 g/ha, evaluated after 13 days
[1] = system: Setaria faberi (SETFA); assay: Post-emergence biological efficacy, SETFA
Description: (§1) Seeds of weeds and/or crops were sown in standard soil in pots (Amaranthus palmeri (AMAPA), Chenopodium album (CHEAL), Euphorbia heterophylla (EPHHL), Ipomoea hederacea (IPOHE), Eleusine indica (ELEIN), Lolium perenne (LOLPE), Digitaria sanguinalis (DIGSA), Setaria faberi (SETFA), Echinochloa crus-galli (ECHCG)). After cultivation for 14 days under controlled conditions in a glasshouse (at 24/19° C., day/night; 16 hours light), the plants were sprayed with an aqueous spray solution derived from the formulation of the technical active ingredient in a small amount of acetone and a special solvent and emulsifier mixture referred to as IF50 (11.12% Emulsogen EL360 TM+44.44% N-methylpyrrolidone+44.44% Dowanol DPM glycol ether), to create a 50 g/l solution which was then diluted using 0.2% Genapol XO80 as diluent to give the desired final dose of test compound.
(§2) The test plants were then grown under controlled conditions in the glasshouse (at 24/18° C., day/night; 15 hours light; 50% humidity) and watered twice daily. After 13 days the test was evaluated (100=total damage to plant; 0=no damage to plant).

[2] = system: Lolium perenne (LOLPE); assay: Post-emergence biological efficacy, LOLPE
Description: as §1, §2

[3] = system: Digitaria sanguinalis (DIGSA); assay: Post-emergence biological efficacy, DIGSA
Description: as §1, §2

[4] = system: Amaranthus palmeri (AMAPA); assay: Pre-emergence biological efficacy, AMAPA
Description: as §1, with “Lolium perenne (LOLPE),” for “Chenopodium album (CHEAL),”, “(IPOHE),” for “(IPOHE), Eleusine indica (ELEIN), Lolium perenne (LOLPE), Digitaria sanguinalis (DIGSA),”, “one day” for “14 days”
as §2

[5] = system: Eleusine indica (ELEIN); assay: Post-emergence biological efficacy, ELEIN
Description: as §1, §2

[6] = system: Echinochloa crus-galli (ECHCG); assay: Pre-emergence biological efficacy, ECHCG
Description: as §1, with “Lolium perenne (LOLPE),” for “Chenopodium album (CHEAL),”, “(IPOHE),” for “(IPOHE), Eleusine indica (ELEIN), Lolium perenne (LOLPE), Digitaria sanguinalis (DIGSA),”, “one day” for “14 days”
as §2

[7] = system: Setaria faberi (SETFA); assay: Pre-emergence biological efficacy, SETFA
Description: as §1, with “Lolium perenne (LOLPE),” for “Chenopodium album (CHEAL),”, “(IPOHE),” for “(IPOHE), Eleusine indica (ELEIN), Lolium perenne (LOLPE), Digitaria sanguinalis (DIGSA),”, “one day” for “14 days”
as §2

[8] = system: Amaranthus palmeri (AMAPA); assay: Post-emergence biological efficacy, AMAPA
Description: as §1, §2

[9] = system: Ipomoea hederacea (IPOHE); assay: Pre-emergence biological efficacy, IPOHE
Description: as §1, with “Lolium perenne (LOLPE),” for “Chenopodium album (CHEAL),”, “(IPOHE),” for “(IPOHE), Eleusine indica (ELEIN), Lolium perenne (LOLPE), Digitaria sanguinalis (DIGSA),”, “one day” for “14 days”
as §2

[10] = system: Echinochloa crus-galli (ECHCG); assay: Post-emergence biological efficacy, ECHCG
Description: as §1, §2

[11] = system: Euphorbia heterophylla (EPHHL); assay: Pre-emergence biological efficacy, EPHHL
Description: as §1, with “Lolium perenne (LOLPE),” for “Chenopodium album (CHEAL),”, “(IPOHE),” for “(IPOHE), Eleusine indica (ELEIN), Lolium perenne (LOLPE), Digitaria sanguinalis (DIGSA),”, “one day” for “14 days”
as §2

[12] = system: Euphorbia heterophylla (EPHHL); assay: Post-emergence biological efficacy, EPHHL
Description: as §1, §2

[13] = system: Lolium perenne (LOLPE); assay: Pre-emergence biological efficacy, LOLPE
Description: as §1, with “Lolium perenne (LOLPE),” for “Chenopodium album (CHEAL),”, “(IPOHE),” for “(IPOHE), Eleusine indica (ELEIN), Lolium perenne (LOLPE), Digitaria sanguinalis (DIGSA),”, “one day” for “14 days”
as §2

[14] = system: Ipomoea hederacea (IPOHE); assay: Post-emergence biological efficacy, IPOHE
Description: as §1, §2

[15] = system: Chenopodium album (CHEAL); assay: Post-emergence biological efficacy, CHEAL
Description: as §1, §2

| Compound | damage to plant (100=total damage; 0=no damage), SETFA [1] | damage to plant (100=total damage; 0=no damage), LOLPE [2] | damage to plant (100=total damage; 0=no damage), DIGSA [3] | damage to plant (100=total damage; 0=no damage), AMAPA [4] | damage to plant (100=total damage; 0=no damage), ELEIN [5] | damage to plant (100=total damage; 0=no damage), ECHCG [6] | damage to plant (100=total damage; 0=no damage), SETFA [7] | damage to plant (100=total damage; 0=no damage), AMAPA [8] | damage to plant (100=total damage; 0=no damage), IPOHE [9] | damage to plant (100=total damage; 0=no damage), ECHCG [10] | damage to plant (100=total damage; 0=no damage), EPHHL [11] | damage to plant (100=total damage; 0=no damage), EPHHL [12] | damage to plant (100=total damage; 0=no damage), LOLPE [13] | damage to plant (100=total damage; 0=no damage), IPOHE [14] | damage to plant (100=total damage; 0=no damage), CHEAL [15] |
| --- | --- | --- | --- | --- | --- | --- | --- | --- | --- | --- | --- | --- | --- | --- | --- |
| COC(=O)CCOC(=O)C(C)Sc1cc(-n2c(=O)n(C)c(=S)n(C)c2=O)c(F)cc1Cl (stereo not drawn) [Compound 9-245, (3-methoxy-3-oxo-propyl) 2-[2-chloro-5-(3,5-dimethyl-2,6-dioxo-4-thioxo-1,3,5-triazinan-1-yl)-4-fluoro-phenyl]sulfanylpropanoate] | 40 | 100 | 30 | 100 | 80 | 80 | 100 | 100 | 90 | 70 | 100 | 90 | 80 | 100 | 100 |
| COC(=O)CCNC(=O)C(C)Sc1cc(-n2c(=O)n(C)c(=S)n(C)c2=O)c(F)cc1Cl (stereo not drawn) [Compound 9-272, methyl 3-[2-[2-chloro-5-(3,5-dimethyl-2,6-dioxo-4-thioxo-1,3,5-triazinan-1-yl)-4-fluoro-phenyl]sulfanylpropanoylamino]propanoate] | 90 | 100 | 70 | 100 | 80 | 80 | 100 | 80 | 100 | 40 | 100 | 90 | 90 | 100 | 90 |
